Key:
[1] = molecular target: Tyrosine-protein kinase JAK3 (Homo sapiens) (UniProt P52333); conditions: Compound concentration 1000.0 nM
[2] = molecular target: MAP kinase-activated protein kinase 2 (Homo sapiens) (UniProt P49137); conditions: Compound concentration 1000.0 nM
[3] = molecular target: RAF proto-oncogene serine/threonine-protein kinase (Homo sapiens) (UniProt P04049); conditions: Compound concentration 1000.0 nM
[4] = molecular target: Receptor tyrosine-protein kinase erbB-3 (Homo sapiens) (UniProt P21860); conditions: Compound concentration 1000.0 nM
[5] = molecular target: Mitogen-activated protein kinase kinase kinase kinase 2 (Homo sapiens) (UniProt Q12851); conditions: Compound concentration 1000.0 nM
[6] = molecular target: MAP kinase-interacting serine/threonine-protein kinase 1 (Homo sapiens) (UniProt Q9BUB5); conditions: Compound concentration 1000.0 nM
[7] = molecular target: Muscle, skeletal receptor tyrosine-protein kinase (Homo sapiens) (UniProt O15146); conditions: Compound concentration 1000.0 nM
[8] = molecular target: Casein kinase I isoform gamma-1 (Homo sapiens) (UniProt Q9HCP0); conditions: Compound concentration 1000.0 nM
[9] = molecular target: Tyrosine-protein kinase Fgr (Homo sapiens) (UniProt P09769); conditions: Compound concentration 1000.0 nM
[10] = test system: Tyrosine-protein kinase ABL1 (Homo sapiens), P00519 [F317I]; conditions: Compound concentration 1000.0 nM
[11] = molecular target: Serine/threonine-protein kinase 24 (Homo sapiens) (UniProt Q9Y6E0); conditions: Compound concentration 1000.0 nM
[12] = molecular target: Casein kinase I isoform epsilon (Homo sapiens) (UniProt P49674); conditions: Compound concentration 1000.0 nM
[13] = molecular target: Mitogen-activated protein kinase kinase kinase 3 (Homo sapiens) (UniProt Q99759); conditions: Compound concentration 1000.0 nM
[14] = test system: Tyrosine-protein kinase ABL1 (Homo sapiens), P00519 [Q252H]; conditions: Compound concentration 1000.0 nM
[15] = molecular target: High affinity nerve growth factor receptor (Homo sapiens) (UniProt P04629); conditions: Compound concentration 1000.0 nM
[16] = molecular target: Serine/threonine-protein kinase 25 (Homo sapiens) (UniProt O00506); conditions: Compound concentration 1000.0 nM
[17] = molecular target: Serine/threonine-protein kinase BRSK2 (Homo sapiens) (UniProt Q8IWQ3); conditions: Compound concentration 1000.0 nM
[18] = molecular target: Activin receptor type-2B (Homo sapiens) (UniProt Q13705); conditions: Compound concentration 1000.0 nM
[19] = molecular target: Insulin receptor (Homo sapiens) (UniProt P06213); conditions: Compound concentration 1000.0 nM
[20] = molecular target: 5-hydroxytryptamine receptor 1D (Homo sapiens) (UniProt P28221); conditions: Compound concentration 10.0 uM
[21] = molecular target: Calcium/calmodulin-dependent protein kinase type 1G (Homo sapiens) (UniProt Q96NX5); conditions: Compound concentration 1000.0 nM
[22] = test system: Tyrosine-protein kinase ABL1 (Homo sapiens), P00519 [Q252H]; conditions: Compound concentration 1000.0 nM; remark: listed apart in the source
[23] = molecular target: Activin receptor type-2A (Homo sapiens) (UniProt P27037); conditions: Compound concentration 1000.0 nM
[24] = molecular target: Serine/threonine-protein kinase 38-like (Homo sapiens) (UniProt Q9Y2H1); conditions: Compound concentration 1000.0 nM
[25] = molecular target: Death-associated protein kinase 1 (Homo sapiens) (UniProt P53355); conditions: Compound concentration 1000.0 nM
[26] = molecular target: Protein kinase C epsilon type (Homo sapiens) (UniProt Q02156); conditions: Compound concentration 1000.0 nM
[27] = molecular target: Serine/threonine-protein kinase MRCK alpha (Homo sapiens) (UniProt Q5VT25); conditions: Compound concentration 1000.0 nM
[28] = molecular target: Activin receptor type-1-like (Homo sapiens) (UniProt P37023); conditions: Compound concentration 1000.0 nM
[29] = test system: Phosphatidylinositol 4,5-bisphosphate 3-kinase catalytic subunit alpha isoform (Homo sapiens), P42336 [E545K]; conditions: Compound concentration 1000.0 nM
[30] = test system: Phosphatidylinositol 4,5-bisphosphate 3-kinase catalytic subunit alpha isoform (Homo sapiens), P42336 [E545A]; conditions: Compound concentration 1000.0 nM
[31] = test system: Epidermal growth factor receptor (Homo sapiens), P00533 [T790M]; conditions: Compound concentration 1000.0 nM
[32] = test system: Tyrosine-protein kinase ABL1 (Homo sapiens), P00519 [Y253F]; conditions: Compound concentration 1000.0 nM
[33] = molecular target: Cyclin-dependent kinase-like 3 (Homo sapiens) (UniProt Q8IVW4); conditions: Compound concentration 1000.0 nM
[34] = molecular target: Mitogen-activated protein kinase 14 (Homo sapiens) (UniProt Q16539); conditions: Compound concentration 1000.0 nM
[35] = test system: Tyrosine-protein kinase ABL1 (Homo sapiens), P00519 [F317L]; conditions: Compound concentration 1000.0 nM
[36] = molecular target: Testis-specific serine/threonine-protein kinase 1 (Homo sapiens) (UniProt Q9BXA7); conditions: Compound concentration 1000.0 nM
[37] = molecular target: Tyrosine-protein kinase HCK (Homo sapiens) (UniProt P08631); conditions: Compound concentration 1000.0 nM
[38] = test system: Tyrosine-protein kinase ABL1 (Homo sapiens), P00519 [M351T]; conditions: Compound concentration 1000.0 nM
[39] = molecular target: 5-hydroxytryptamine receptor 2A (Homo sapiens) (UniProt P28223); conditions: Compound concentration 10.0 uM
[40] = molecular target: Phosphatidylinositol 4-phosphate 3-kinase C2 domain-containing subunit beta (Homo sapiens) (UniProt O00750); conditions: Compound concentration 1000.0 nM
[41] = molecular target: Tyrosine-protein kinase receptor TYRO3 (Homo sapiens) (UniProt Q06418); conditions: Compound concentration 1000.0 nM
[42] = molecular target: Myosin light chain kinase, smooth muscle (Homo sapiens) (UniProt Q15746); conditions: Compound concentration 1000.0 nM
[43] = molecular target: Macrophage colony-stimulating factor 1 receptor (Homo sapiens) (UniProt P07333); conditions: Compound concentration 1000.0 nM
[44] = test system: Mast/stem cell growth factor receptor Kit (Homo sapiens), P10721 [D816V]; conditions: Compound concentration 1000.0 nM
[45] = molecular target: Serine/threonine-protein kinase 3 (Homo sapiens) (UniProt Q13188); conditions: Compound concentration 1000.0 nM

Sequence of Phosphatidylinositol 4,5-bisphosphate 3-kinase catalytic subunit alpha isoform (Homo sapiens), P42336 [E545A] (P42336 whole entry E545A, canonical isoform): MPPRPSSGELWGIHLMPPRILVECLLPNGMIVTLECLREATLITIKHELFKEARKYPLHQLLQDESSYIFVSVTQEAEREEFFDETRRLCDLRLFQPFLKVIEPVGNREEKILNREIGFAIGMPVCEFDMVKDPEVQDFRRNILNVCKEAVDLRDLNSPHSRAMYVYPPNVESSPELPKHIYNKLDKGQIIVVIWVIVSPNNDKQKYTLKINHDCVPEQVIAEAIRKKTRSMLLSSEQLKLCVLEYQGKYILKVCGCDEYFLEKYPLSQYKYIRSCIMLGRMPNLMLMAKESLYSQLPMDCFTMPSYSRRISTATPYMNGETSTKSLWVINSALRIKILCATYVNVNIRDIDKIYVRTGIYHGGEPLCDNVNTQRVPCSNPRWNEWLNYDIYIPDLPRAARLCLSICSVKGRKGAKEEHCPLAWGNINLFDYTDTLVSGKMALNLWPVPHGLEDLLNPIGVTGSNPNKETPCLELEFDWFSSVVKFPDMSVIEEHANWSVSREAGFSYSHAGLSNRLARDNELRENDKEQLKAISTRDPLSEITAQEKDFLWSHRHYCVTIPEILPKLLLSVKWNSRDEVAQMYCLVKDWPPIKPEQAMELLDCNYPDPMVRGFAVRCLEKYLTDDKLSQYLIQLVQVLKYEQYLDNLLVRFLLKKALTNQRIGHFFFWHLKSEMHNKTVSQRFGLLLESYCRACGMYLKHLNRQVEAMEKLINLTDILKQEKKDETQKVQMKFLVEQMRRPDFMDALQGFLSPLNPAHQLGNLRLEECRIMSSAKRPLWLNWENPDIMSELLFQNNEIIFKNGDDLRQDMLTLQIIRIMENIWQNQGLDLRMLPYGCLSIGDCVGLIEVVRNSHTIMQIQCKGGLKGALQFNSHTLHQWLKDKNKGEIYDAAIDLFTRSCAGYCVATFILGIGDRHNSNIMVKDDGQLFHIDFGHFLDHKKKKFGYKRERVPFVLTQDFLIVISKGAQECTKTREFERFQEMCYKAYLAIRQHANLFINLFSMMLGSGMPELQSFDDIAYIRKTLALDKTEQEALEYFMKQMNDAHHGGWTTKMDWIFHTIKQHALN
Sequence of Serine/threonine-protein kinase BRSK2 (Homo sapiens) (Q8IWQ3 whole entry): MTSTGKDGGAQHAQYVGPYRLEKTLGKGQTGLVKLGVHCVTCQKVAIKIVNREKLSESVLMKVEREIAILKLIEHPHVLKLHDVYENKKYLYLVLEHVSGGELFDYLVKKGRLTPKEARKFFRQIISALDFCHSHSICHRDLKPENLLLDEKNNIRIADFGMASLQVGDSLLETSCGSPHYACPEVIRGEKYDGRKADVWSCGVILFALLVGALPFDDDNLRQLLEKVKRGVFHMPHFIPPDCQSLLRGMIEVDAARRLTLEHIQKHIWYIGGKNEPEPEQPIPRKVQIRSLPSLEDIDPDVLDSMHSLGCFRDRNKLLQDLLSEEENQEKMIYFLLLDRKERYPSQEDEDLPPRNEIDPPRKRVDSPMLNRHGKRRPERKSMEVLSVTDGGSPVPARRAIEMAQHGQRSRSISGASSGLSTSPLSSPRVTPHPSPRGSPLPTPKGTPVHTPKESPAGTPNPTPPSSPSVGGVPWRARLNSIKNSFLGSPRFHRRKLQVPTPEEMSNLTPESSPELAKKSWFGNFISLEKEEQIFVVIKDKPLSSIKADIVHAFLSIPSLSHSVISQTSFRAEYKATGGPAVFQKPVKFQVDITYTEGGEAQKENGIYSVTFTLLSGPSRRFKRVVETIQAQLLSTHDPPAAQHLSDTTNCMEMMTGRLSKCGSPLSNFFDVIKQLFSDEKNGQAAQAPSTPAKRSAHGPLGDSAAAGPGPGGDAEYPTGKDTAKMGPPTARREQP
Sequence of 5-hydroxytryptamine receptor 2A (Homo sapiens) (P28223 whole entry, the tested form may be a part): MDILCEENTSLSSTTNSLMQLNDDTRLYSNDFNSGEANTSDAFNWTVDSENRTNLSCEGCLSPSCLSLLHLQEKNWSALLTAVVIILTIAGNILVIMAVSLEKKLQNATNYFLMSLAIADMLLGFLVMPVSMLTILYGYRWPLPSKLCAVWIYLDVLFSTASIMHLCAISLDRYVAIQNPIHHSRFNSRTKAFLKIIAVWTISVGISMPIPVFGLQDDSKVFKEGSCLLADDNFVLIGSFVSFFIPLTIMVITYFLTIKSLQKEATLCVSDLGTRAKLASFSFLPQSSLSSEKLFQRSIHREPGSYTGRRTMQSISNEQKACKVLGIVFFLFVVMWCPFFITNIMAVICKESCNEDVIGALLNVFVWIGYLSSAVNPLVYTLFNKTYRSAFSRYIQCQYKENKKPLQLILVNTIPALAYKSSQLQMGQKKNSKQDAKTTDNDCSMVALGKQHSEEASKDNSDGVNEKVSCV
Sequence of 5-hydroxytryptamine receptor 1D (Homo sapiens) (P28221 whole entry): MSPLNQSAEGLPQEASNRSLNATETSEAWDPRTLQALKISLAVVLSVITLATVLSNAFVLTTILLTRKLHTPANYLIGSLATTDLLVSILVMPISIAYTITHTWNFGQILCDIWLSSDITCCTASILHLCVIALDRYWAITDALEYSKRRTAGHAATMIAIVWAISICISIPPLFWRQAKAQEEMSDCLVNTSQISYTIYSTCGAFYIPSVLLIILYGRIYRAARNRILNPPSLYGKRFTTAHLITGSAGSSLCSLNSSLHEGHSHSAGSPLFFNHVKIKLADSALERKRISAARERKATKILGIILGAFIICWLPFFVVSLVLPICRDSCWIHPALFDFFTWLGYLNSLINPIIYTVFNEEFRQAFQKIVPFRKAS
Sequence of Protein kinase C epsilon type (Homo sapiens) (Q02156 whole entry): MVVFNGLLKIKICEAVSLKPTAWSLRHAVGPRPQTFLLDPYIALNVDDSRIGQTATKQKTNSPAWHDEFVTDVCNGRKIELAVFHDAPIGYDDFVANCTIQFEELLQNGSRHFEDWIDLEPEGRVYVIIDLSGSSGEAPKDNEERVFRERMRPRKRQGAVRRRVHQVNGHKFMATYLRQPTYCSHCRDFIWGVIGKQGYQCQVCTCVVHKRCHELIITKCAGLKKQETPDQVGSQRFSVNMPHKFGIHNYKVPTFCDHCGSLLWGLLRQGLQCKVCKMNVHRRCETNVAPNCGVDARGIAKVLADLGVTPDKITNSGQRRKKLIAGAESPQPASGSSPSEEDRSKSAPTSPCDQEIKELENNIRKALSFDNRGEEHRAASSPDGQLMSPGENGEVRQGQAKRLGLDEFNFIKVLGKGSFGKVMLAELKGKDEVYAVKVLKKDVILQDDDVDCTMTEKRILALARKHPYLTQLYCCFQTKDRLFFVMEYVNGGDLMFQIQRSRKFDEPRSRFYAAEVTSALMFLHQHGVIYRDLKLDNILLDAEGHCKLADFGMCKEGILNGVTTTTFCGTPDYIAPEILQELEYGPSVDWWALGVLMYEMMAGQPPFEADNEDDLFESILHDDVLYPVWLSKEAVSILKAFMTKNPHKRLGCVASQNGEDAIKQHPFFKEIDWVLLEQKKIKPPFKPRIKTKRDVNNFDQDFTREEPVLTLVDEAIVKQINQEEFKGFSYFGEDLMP
Sequence of Activin receptor type-1-like (Homo sapiens) (P37023 whole entry, canonical isoform): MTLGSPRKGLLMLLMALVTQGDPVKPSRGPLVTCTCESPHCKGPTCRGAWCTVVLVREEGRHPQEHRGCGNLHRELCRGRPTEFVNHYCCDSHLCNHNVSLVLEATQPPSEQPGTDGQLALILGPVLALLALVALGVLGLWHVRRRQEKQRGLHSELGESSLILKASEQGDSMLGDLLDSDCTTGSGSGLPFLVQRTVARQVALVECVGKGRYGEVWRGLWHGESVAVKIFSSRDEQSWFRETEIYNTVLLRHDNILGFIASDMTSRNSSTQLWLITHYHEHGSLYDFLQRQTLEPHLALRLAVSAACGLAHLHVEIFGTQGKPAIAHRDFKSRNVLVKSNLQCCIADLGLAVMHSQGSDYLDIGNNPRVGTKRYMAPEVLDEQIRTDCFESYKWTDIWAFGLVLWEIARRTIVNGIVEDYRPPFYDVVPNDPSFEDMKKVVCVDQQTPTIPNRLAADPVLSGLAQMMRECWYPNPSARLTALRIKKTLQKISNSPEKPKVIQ
Sequence of Activin receptor type-2B (Homo sapiens) (Q13705 whole entry): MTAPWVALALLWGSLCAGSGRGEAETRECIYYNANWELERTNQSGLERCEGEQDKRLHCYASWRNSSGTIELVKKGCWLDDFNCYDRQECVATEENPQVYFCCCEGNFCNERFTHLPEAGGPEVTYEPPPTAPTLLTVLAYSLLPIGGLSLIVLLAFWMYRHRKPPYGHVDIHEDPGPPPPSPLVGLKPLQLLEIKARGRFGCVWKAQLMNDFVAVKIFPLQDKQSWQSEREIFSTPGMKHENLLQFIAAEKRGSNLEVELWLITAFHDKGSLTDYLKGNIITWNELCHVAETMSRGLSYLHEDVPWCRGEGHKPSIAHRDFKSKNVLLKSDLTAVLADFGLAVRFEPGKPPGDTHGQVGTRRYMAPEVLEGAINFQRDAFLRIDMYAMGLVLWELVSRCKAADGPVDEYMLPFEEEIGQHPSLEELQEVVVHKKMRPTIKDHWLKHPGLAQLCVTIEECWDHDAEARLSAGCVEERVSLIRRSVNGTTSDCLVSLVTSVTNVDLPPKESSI
Sequence of Tyrosine-protein kinase HCK (Homo sapiens) (P08631 2-526 limits assumed): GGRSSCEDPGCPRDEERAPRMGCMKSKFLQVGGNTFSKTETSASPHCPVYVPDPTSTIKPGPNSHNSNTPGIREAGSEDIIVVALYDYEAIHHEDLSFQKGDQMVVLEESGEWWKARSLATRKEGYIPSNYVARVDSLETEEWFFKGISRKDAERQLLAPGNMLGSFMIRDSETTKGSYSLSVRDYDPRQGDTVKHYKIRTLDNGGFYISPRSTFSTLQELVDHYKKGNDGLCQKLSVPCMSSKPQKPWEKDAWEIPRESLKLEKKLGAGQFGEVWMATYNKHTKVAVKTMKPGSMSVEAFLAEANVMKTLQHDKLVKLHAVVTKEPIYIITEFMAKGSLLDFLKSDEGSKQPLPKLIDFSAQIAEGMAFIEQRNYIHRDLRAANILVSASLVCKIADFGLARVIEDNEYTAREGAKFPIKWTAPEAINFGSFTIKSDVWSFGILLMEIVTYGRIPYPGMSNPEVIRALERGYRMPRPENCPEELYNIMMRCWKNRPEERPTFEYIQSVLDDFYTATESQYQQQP

SMILES: COc1ccc2c(O[C@@H]3C[C@H]4C(=O)N[C@]5(C(=O)O)CC5/C=C\CCCCC[C@H](NC(=O)OC5CCCC5)C(=O)N4C3)cc(-c3csc(NC(=O)C(C)C)n3)nc2c1C (stereo not given in full) [BI 1230]
- residual activity [1]: 88%
- residual activity [2]: 60%
- residual activity [3]: 95%
- residual activity [4]: 88%
- residual activity [5]: 100%
- residual activity [6]: 79%
- residual activity [7]: 91%
- residual activity [8]: 94%
- residual activity [9]: 100%
- residual activity [10]: 90%
- residual activity [11]: 100%
- residual activity [12]: 100%
- residual activity [13]: 79%
- residual activity [14]: 70%
- residual activity [15]: 82%
- residual activity [16]: 100%
- residual activity [17]: 100%
- residual activity [18]: 100%
- residual activity [19]: 94%
- inhibition [20]: 32.5%
- residual activity [21]: 98%
- residual activity [22]: 80%
- residual activity [23]: 72%
- residual activity [24]: 43%
- residual activity [25]: 100%
- residual activity [26]: 58%
- residual activity [27]: 100%
- residual activity [28]: 97%
- residual activity [29]: 68%
- residual activity [30]: 100%
- residual activity [31]: 85%
- residual activity [32]: 87%
- residual activity [33]: 92%
- residual activity [34]: 100%
- residual activity [35]: 75%
- residual activity [36]: 70%
- residual activity [37]: 100%
- residual activity [38]: 90%
- inhibition [39]: 11.4%
- residual activity [40]: 82%
- residual activity [41]: 100%
- residual activity [42]: 78%
- residual activity [43]: 89%
- residual activity [44]: 95%
- residual activity [45]: 86%

SMILES: O=C(N[C@H]1CCCCC/C=C\C2C[C@@]2(C(=O)O)NC(=O)[C@@H]2C[C@@H](Oc3ccncc3)CN2C1=O)OC1CCCC1 (stereo not given in full) [BI 1675]
- residual activity [1]: 100%
- residual activity [2]: 89%
- residual activity [3]: 100%
- residual activity [4]: 84%
- residual activity [5]: 100%
- residual activity [6]: 79%
- residual activity [7]: 100%
- residual activity [8]: 88%
- residual activity [9]: 100%
- residual activity [10]: 100%
- residual activity [11]: 81%
- residual activity [12]: 67%
- residual activity [13]: 89%
- residual activity [14]: 65%
- residual activity [15]: 100%
- residual activity [16]: 97%
- residual activity [17]: 100%
- residual activity [18]: 100%
- residual activity [19]: 100%
- inhibition [20]: 3.22%
- residual activity [21]: 76%
- residual activity [22]: 85%
- residual activity [23]: 96%
- residual activity [24]: 80%
- residual activity [25]: 83%
- residual activity [26]: 100%
- residual activity [27]: 87%
- residual activity [28]: 84%
- residual activity [29]: 95%
- residual activity [30]: 100%
- residual activity [31]: 91%
- residual activity [32]: 100%
- residual activity [33]: 99%
- residual activity [34]: 94%
- residual activity [35]: 100%
- residual activity [36]: 77%
- residual activity [37]: 100%
- residual activity [38]: 89%
- inhibition [39]: -7.7%
- residual activity [40]: 84%
- residual activity [41]: 100%
- residual activity [42]: 100%
- residual activity [43]: 92%
- residual activity [44]: 90%
- residual activity [45]: 76%

From ChEMBL document CHEMBL4507284, “Data for DCP probe BI-1230” (2021)
